Experiment [1] has as its target T1, FimH-CRD (Escherichia coli, UniProt P08191).
T1 construct: The first 177 amino acids of the FimH protein; thrombin tag (printed as 'fusion protein with thrombin') (cleaved yes); made in house; host or cells: bacteria (pET21b plasmid)
Description: Competitive binding assay by fluorescence polarization, assay 2 (compounds prepared by robotics, plates frozen and thawed). Summed up: (§1)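 Fluorescence-polarization competition of 5 nM Alexa 647 mannoside probe with 60 nM FimH-CRD (first 177 residues, tag removed) in Tris-Cl pH 7.0, NaCl, EDTA, β-ME, BSA, 2.5% DMSO, 5 h at RT in the dark. Twelve-point 3-fold titrations (0.4 nM–75 μM) in duplicate; Kd interpolated from displacement curves.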
(Polarisation of emitted light reports the rotation of a fluorescent probe.)

The target of experiment [2] is T1, FimH-CRD. Put plainly: Competitive binding assay by fluorescence polarization, assay 1 (compounds prepared by manual serial dilution). The procedure, abridged:
as §1

T1 sequence (P08191 22-177): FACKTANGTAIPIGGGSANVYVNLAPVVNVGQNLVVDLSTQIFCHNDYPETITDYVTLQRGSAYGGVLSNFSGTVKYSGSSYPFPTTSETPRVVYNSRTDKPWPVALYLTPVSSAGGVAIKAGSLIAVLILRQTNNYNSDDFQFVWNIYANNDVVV

What is called Kd is the concentration at which binding is half-saturated. A low value points to tighter binding. For orientation: IC50 means the concentration needed to halve the response being measured. Read a low IC50 as inhibition by little substance. In the case of `Cc1nnc(-c2ccc(-c3cccc([C@H]4O[C@H](CO)[C@@H](O)[C@H](O)[C@@H]4O)c3)cc2)o1` [Compound 48, (2R,3S,4R,5S,6R)-2-(hydroxymethyl)-6-[3-[4-(5-methyl-1,3,4-oxadiazol-2-yl)phenyl]phenyl]tetrahydropyran-3,4,5-triol], the Kd at FimH-CRD [1] is 8.5 ± 1.3 nM; at FimH-CRD [2] it was below 5 nM. Further, the IC50 on FimH-CRD [2] was 34 nM.
The matching figures for `COC(=O)c1cc(Oc2ccc([C@H]3O[C@H](CO)[C@@H](O)[C@H](O)[C@@H]3O)cc2)cc(C(=O)OC)c1` [Compound 53, dimethyl 5-(4-((2R,3S,4R,5S,6R)-3,4,5-trihydroxy-6-(hydroxymethyl)tetrahydro-2H-pyran-2-yl)phenoxy)isophthalate]: 15.7 ± 10.2 nM, below 5 nM and 25 nM.
The matching figures for `COC(=O)c1ccc(Oc2ccc([C@H]3O[C@H](CO)[C@@H](O)[C@H](O)[C@@H]3O)cc2)cc1` [Compound 54, methyl 4-(4-((2R,3S,4R,5S,6R)-3,4,5-trihydroxy-6-(hydroxymethyl)tetrahydro-2H-pyran-2-yl)phenoxy)benzoate]: 13.2 ± 9.2 nM, below 5 nM and 16 nM.
The matching figures for `Cc1nnc(-c2ccc(Oc3cccc([C@H]4O[C@H](CO)[C@@H](O)[C@H](O)[C@@H]4O)c3)cc2)o1` [Compound 60, (2R,3S,4R,5S,6R)-2-(hydroxymethyl)-6-[3-[4-(5-methyl-1,3,4-oxadiazol-2-yl)phenoxy]phenyl]tetrahydropyran-3,4,5-triol]: 10.7 ± 5.3 nM, 8.7 ± 2.1 nM and 31 nM.
As to `COC(=O)c1cc(C(=O)OC)cc(-c2cccc([C@H]3O[C@H](CO)[C@@H](O)[C@H](O)[C@@H]3O)c2)c1` [Compound 62, Dimethyl 3′-((2R,3S,4R,5S,6R)-3,4,5-trihydroxy-6-(hydroxymethyl)tetrahydro-2H-pyran-2-yl)-[1,1′-biphenyl]-3,5-dicarboxylate], the Kd on FimH-CRD [1] is 7.6 ± 2 nM; at FimH-CRD [2] it was 5.5 ± 0.4 nM.
On to `CNC(=O)c1cc(Oc2cccc([C@H]3O[C@H](CO)[C@@H](O)[C@H](O)[C@@H]3O)c2)cc(C(=O)NC)c1` [Compound 64, N1,N3-dimethyl-5-(3-((2R,3S,4R,5S,6R)-3,4,5-trihydroxy-6-(hydroxymethyl)tetrahydro-2H-pyran-2-yl)phenoxy)isophthalamide], for which the equilibrium dissociation constant (Kd) on FimH-CRD [1] stood at 20.7 ± 16.8 nM. At FimH-CRD [2], this compound had an IC50 of 55 nM and a Kd of 15 ± 2.6 nM.
The matching figures for `OC[C@H]1O[C@H](c2cc(O)ccc2Cl)[C@@H](O)[C@@H](O)[C@@H]1O` [Compound 68, (2R,3S,4R,5S,6R)-2-(2-chloro-5-hydroxyphenyl)-6-(hydroxymethyl)tetrahydro-2H-pyran-3,4,5-triol]: 35 ± 21.2 nM, 22 nM and 22.1 ± 10.1 nM.
Consider `OC[C@H]1O[C@H](c2cccc(-c3cc(Cl)cc(Cl)c3)c2)[C@@H](O)[C@@H](O)[C@@H]1O` [Compound 79, (2R,3S,4R,5S,6R)-2-[3-(3,5-Dichlorophenyl)phenyl]-6-(hydroxymethyl)tetrahydropyran-3,4,5-triol], for which the Kd at FimH-CRD [1] is 12.8 ± 0.9 nM; at FimH-CRD [2], below 5 nM.
The matching figures for `Cc1nnc(-c2cccc(-c3ccc([C@H]4O[C@H](CO)[C@@H](O)[C@H](O)[C@@H]4O)cc3)c2)o1` [Compound 130, (2R,3S,4R,5S,6R)-2-(hydroxymethyl)-6-[4-[3-(5-methyl-1,3,4-oxadiazol-2-yl)phenyl]phenyl]tetrahydropyran-3,4,5-triol]: 46.2 nM and below 5 nM.
For `CC(C)C(=O)Nc1ccc(Oc2cccc([C@H]3O[C@H](CO)[C@@H](O)[C@H](O[C@H]4O[C@H](CO)[C@@H](O)[C@H](O)[C@@H]4O)[C@@H]3O)c2)cc1` [Compound 273, N-[4-[3-[(2R,3R,4R,5R,6R)-3,5-Dihydroxy-6-(hydroxymethyl)-4-[(2R,3S,4S,5S,6R)-3,4,5-trihydroxy-6-(hydroxymethyl)tetrahydropyran-2-yl]oxy-tetrahydropyran-2-yl]phenoxy]phenyl]-2-methyl-propanamide], the Kd at FimH-CRD [1] was 21.8 ± 5.2 nM; at FimH-CRD [2], 12.1 ± 5.7 nM. The compound further returned a half-maximal inhibitory concentration (IC50) at FimH-CRD [2] of 38 nM.
The matching figures for `COC(=O)COc1cccc([C@H]2O[C@H](CO)[C@@H](O)[C@H](O[C@H]3O[C@H](CO)[C@@H](O)[C@H](O)[C@@H]3O)[C@@H]2O)c1` [Compound 286, Methyl 2-[3-[(2R,3R,4R,5R,6R)-3,5-dihydroxy-6-(hydroxymethyl)-4-[(2R,3S,4S,5S,6R)-3,4,5-trihydroxy-6-(hydroxymethyl)tetrahydropyran-2-yl]oxy-tetrahydropyran-2-yl]phenoxy]acetate]: 35.1 ± 16.7 nM, 17.4 ± 4.8 nM and 63 nM.
Consider `OC[C@H]1O[C@H](c2cccc(Br)c2)[C@@H](O)[C@@H](O)[C@@H]1O` [Intermediate C, (2R,3S,4R,5S,6R)-2-(3-bromophenyl)-6-(hydroxymethyl)tetrahydro-2H-pyran-3,4,5-triol], for which the values for the Kd at FimH-CRD [1] and on FimH-CRD [2] were 27 nM and 24 ± 5 nM, respectively.
